In patent US20170102375A1, “METHODS FOR DETERMINING THE EFFECTS OF COMPOUNDS ON JAK/STAT ACTIVITY” (Nodality, Inc., priority 2009, published 2017):
Where two headings read alike, the source gives them in different places.

Columns and labels:
[1] = system: IL-27-induced p-Stat readout; test: IL-27-induced JAK/STAT signaling in AML patient cells, phosphoflow p-Stat1, p-Stat3, p-Stat5; format: cell-based, human
Procedure: (§1) Cells from three patients were stimulated with the cytokines IL-27 and G-CSF to determine whether these modulators could induce JAK/STAT pathway activation across cells from different AML patient donors. IL-27 has been reported to signal through JAK1, JAK2, and Tyk2, leading to the phosphorylation of Stat1, Stat3, and Stat5. G-CSF has been reported to signal through JAK2 and Tyk2 and leads to the phosphorylation of Stat3. […] One hour after incubation, the cells were stimulated with IL-27 and G-CSF. After stimulation cell signaling was measured by multiparametric phosphoflow cytometry to assess p-Stat1, p-Stat3 and p-Stat5 levels.
(§2) The samples were gated on cell populations. Incubation with fluorochrome-conjugated monoclonal antibodies that recognize lineage specific epitopes on the cell surface delineated at least 3 cell subpopulations in patient samples. […] Three cell subsets were examined: (1) CD34−/CD117med, (2) CD34+/CD117med, (3) CD34−/CD117−. “CD117” in FIG. 18 is the same as “ckit” in FIG. 19. “Med” indicates a medium amount of expression with respect to other cell subsets that express more or less CD117.

p-STAT5 in T cells = test: multiparameter phosphoflow, p-STAT5 in T cells gated from 90% whole blood; format: cell-based
Procedure: A dose series of treatments is performed for each compound, ranging from doses as low as no compound, up to doses in the ranges of 1×10° nM, 1×10^1 nM, 1×10^2 nM, 1×10^3 nM, and 1×10^4 nM. Cell signaling is measured by multiparametric phosphoflow cytometry to assess p-Stat3, pERK, and p-Stat5 levels. The samples are gated on cell populations. This method may be used, for example, to measure JAK/STAT signaling activity in gated T cells based on levels p-Stat5 (See FIG. 12). The relationship between dosing and signaling activity can be used to calculate the IC50 for each compound (See, e.g. FIG. 12).

[2] = system: G-CSF-induced p-Stat readout; test: G-CSF-induced JAK/STAT signaling in AML patient cells, phosphoflow p-Stat1, p-Stat3, p-Stat5; format: cell-based, human
Procedure: as §1, §2

pAKT (S473) = test: phosphoflow, evoked pAKT (S473) in B-cells gated from PBMC sample, IC50 from sub-sampled cells; format: cell-based; conditions: repeated 100 times, read-out: log10(IC50) (converted)
Procedure: In some embodiments, the invention provides tools for making robust measurements of very small subpopulations of cells. […] The IC50 for […] was calculated using pAKT measurements from 3,000 cells. […] The median fluorescence index (MFI) was then computed only from these cells and used to estimate the IC50 value. This process was repeated 100 times at each sampling level to generate a list of IC50 values. If a small number of cells is sufficiently representative of the larger population, all the IC50 values are expected to be similar to each other, and therefore the 95% confidence interval will remain small. […] For samples of 40 cells and fewer, the IC50 became increasingly inconsistent. Depending on experimental conditions, such as cell type, nodes assayed, the percentage of cells that respond to the modulator, detection methods, and the strength of the signal, the minimal number of cells needed to obtain statistically relevant measurements may vary.

p-ERK in monocytes = test: multiparameter phosphoflow, p-ERK stimulated by GM-CSF in monocytes from PBMCs; format: cell-based; conditions: treated PBMCs, off-target ERK/MAPK (FIG. 16)
Procedure: (§3) (See FIG. 11; Table 7). […] The samples are gated on cell populations.
(§4) As shown in FIGS. 16-17, the methods of the invention can also be used to identify off-target effects of drug treatment. Muliparameter phosphoflow is used to detect the effects of compounds selected from the list in Table 8 on signaling pathways other than JAK/STAT. In FIG. 16, when PBMCs are treated with the JAK/STAT inhibitor Pyridone 6 (“Jak Inhibitor I,” Calbiochem), pERK levels are reduced in monocytes. […] Thus, the methods of the invention can identify both inhibition and induction of off-target signaling pathways, in this example, the ERK/MAPK pathway. The methods of the invention can also be used to identify off-target effects of JAK/STAT inhibitors on other pathways.

p-ERK in B cells = test: multiparameter phosphoflow, p-ERK stimulated by CD40L in B-cells from PBMCs; format: cell-based; conditions: treated PBMCs, off-target ERK/MAPK (FIG. 16)
Procedure: as §3, §4

pNFkB65 = test: multiparameter phosphoflow, NFkB signaling in stimulated B cells; format: cell-based; conditions: stimulated B cells (FIG. 17)
Procedure: as §4

CML patients = CML patients treated at the early stages of the disease; cited from earlier work

Question: For C[C@@H]1CCN(C(=O)CC#N)C[C@@H]1N(C)c1ncnc2[nH]ccc12 [CP-690550], which “inhibition of IL-27-induced p-Stat readout” value ([1]; 333 nM, 1 h pre-incubation, cells of two AML patient donors with IL-27-induced signaling) is on record?
Answer: completely

Question: What about the “effect in cells from the third patient” value ([1]; AML patient cells in which IL-27 and G-CSF induced no signaling response) of the same molecule?
Answer: no effect

Question: What about the “inhibition of basal phosphorylation levels in the p-Stat readout” value ([1]; AML patient cells, IL-27 experiment (FIG. 20)) of the same molecule?
Answer: no inhibition

Question: And the “potency in whole blood” value (p-STAT5 in T cells; 90% whole blood gated on T cells)?
Answer: retains a high potency

Question: And the “inhibition of G-CSF-induced p-Stat readout” value ([2]; 3333 nM, 1 h pre-incubation, cells of two AML patient donors with G-CSF-induced signaling)?
Answer: completely

Question: And the “inhibition of basal phosphorylation levels in the p-Stat readout” value ([2]; AML patient cells, G-CSF experiment (FIG. 21))?
Answer: no inhibition

Question: Which IC50 (pAKT (S473); simulation: 10 cells sampled) does the source give for O=c1cc(N2CCOCC2)oc2c(-c3ccccc3)cccc12 [LY940002] here?
Answer: 4.79 nM

Question: And the IC50 (pAKT (S473); simulation: 20 cells sampled)?
Answer: 79.4 nM

Question: What about the IC50 (pAKT (S473); simulation: 40 cells sampled) of the same molecule?
Answer: 61.7 nM

Question: And the IC50 (pAKT (S473); simulation: 80 cells sampled)?
Answer: 479 nM

Question: What about the IC50 (pAKT (S473); simulation: 160 cells sampled) of the same molecule?
Answer: 479 nM

Question: And the IC50 (pAKT (S473); simulation: 320 cells sampled)?
Answer: 490 nM

Question: And the IC50 (pAKT (S473); simulation: 640 cells sampled)?
Answer: 490 nM

Question: What about the IC50 (pAKT (S473); simulation: 1280 cells sampled) of the same molecule?
Answer: 479 nM

Question: What about the IC50 (pAKT (S473); simulation: 2560 cells sampled) of the same molecule?
Answer: 490 nM

Question: What about the IC50 (pAKT (S473); simulation: MFI from 5 cells sampled from 3,000 cell data set) of the same molecule?
Answer: 0.302 nM

Question: Which results are given for CC(C)(C)c1nc2c3cc[nH]c(=O)c3c3cc(F)ccc3c2[nH]1 [Pyridone 6]?
Answer: effect on pERK levels in monocytes (p-ERK in monocytes): reduced; decrease of potency in whole blood versus PBMCs (p-STAT5 in T cells; 90% whole blood gated on T cells vs stimulated PBMCs): 70 fold; effect on pERK levels in B cells (p-ERK in B cells): does not reduce

Question: Which “effect on NFkB signaling, levels of pNFkB65” value (pNFkB65) does the source give for CCOC(=O)c1cn(-c2c(F)c(F)c(C#N)c(F)c2F)c2c(F)c(F)c(F)cc2c1=O [Stat3 Inhibitor VII] here?
Answer: inhibits NFkB signaling

Question: With CC(C)(O)/C=C/C(=O)[C@](C)(O)[C@H]1[C@H](O)C[C@@]2(C)[C@@H]3CC=C4[C@@H](C=C(O)C(=O)C4(C)C)[C@]3(C)C(=O)C[C@]12C [cucurbitacin I] as the molecule, how does the “effect on pERK levels in monocytes” value (p-ERK in monocytes) read?
Answer: increased

Question: And the “effect on pERK levels in B cells” value (p-ERK in B cells)?
Answer: increased

Question: With Cc1ccc(NC(=O)c2ccc(CN3CCN(C)CC3)cc2)cc1Nc1nccc(-c2cccnc2)n1 [imatinib] as the molecule, how does the “complete remission, patients” value (CML patients) read?
Answer: 97%
